{"source": "patent US20110305673A1", "about": "“COMPOSITIONS AND METHODS FOR TISSUE REPAIR” (The University of Vermont and State Agriculture College, priority 2008, published 2011)", "key": {"[1]": {"test_system": "cardiac progenitor cells", "test": "Signal transduction inhibitor study on CPC number (48 hrs)", "assay_type": "cell-based, rat", "conditions": "for effect on number/growth of CPCs in MSC conditioned media: inhibitor 10 μM; for effect on number/growth of CPCs in MSC conditioned media / cell number ratio to control cell number: 48 hrs; for cell number ratio to control cell number: CPCs in MSC CdM", "experimental": "Serum-free conditioned media was prepared as described previously (Kiel et al., Cell 2005; 121:1109-1121). cardiac progenitor cells and cardiac fibroblasts were plated at 500 cells/cm^2 and cultured in their growth medium. Three days after plating the medium was removed, the wells were washed twice with PBS, and the cells were then exposed to conditioned media or to fresh serum-free medium (α-MEM). For time course proliferation studies, the conditioned media and serum-free medium were changed every 2 days. […] All inhibitors were from Calbiochem (EMD Chemicals, San Diego, Calif.) and were dissolved in dimethyl sulfoxide (DMSO). Cardiac progenitor cells were cultured in conditioned media with the inhibitors or with the equivalent volume of DMSO as a control for 48 hrs. In the protection study, 3 days after plating, the medium was replaced with either the conditioned media or serum-free medium and the cells were exposed to hypoxia in a specialized incubator (1% oxygen) for 48 hours. The hypoxia incubator was a model that measured both CO2 and O2 (Thermo Electron, Form a Series II, model 3130). Oxygen was maintained at 1% by the injection of nitrogen gas and was monitored continuously. Cell numbers were quantified by the fluorescent labeling of nucleic acids (CyQuant dye; Molecular Probes, Carlsbad, Calif.) and with a microplate fluorescence reader (FLX800; Bio-Tek Instruments Inc., Winooski, Vt.) set to 480 nm excitation and 520 nm emission. Each experiment was repeated a minimum of 3 times."}, "[2]": {"test_system": "cardiac progenitor cells", "test": "CPC protection study under hypoxia (1% oxygen, 48 hours)", "assay_type": "cell-based, rat", "conditions": "inhibitor 10 μM", "experimental": "Serum-free conditioned media was prepared as described previously (Kiel et al., Cell 2005; 121:1109-1121). cardiac progenitor cells and cardiac fibroblasts were plated at 500 cells/cm^2 and cultured in their growth medium. Three days after plating the medium was removed, the wells were washed twice with PBS, and the cells were then exposed to conditioned media or to fresh serum-free medium (α-MEM). For time course proliferation studies, the conditioned media and serum-free medium were changed every 2 days. In the signal transduction inhibitor studies the following pharmacological inhibitors, were used (10 micromolar): AG490, an inhibitor of Jak2/STAT3 pathway; Stattic, a specific inhibitor of STAT3 phosphorylation at Tyr^705; LY294002, inhibitor of phosphatidylinositol 3-kinase (PI3K)/Akt pathway; and PD98059, extracellular signal-regulated kinase (ERK) inhibitor. […] The hypoxia incubator was a model that measured both CO2 and O2 (Thermo Electron, Form a Series II, model 3130). Oxygen was maintained at 1% by the injection of nitrogen gas and was monitored continuously. Cell numbers were quantified by the fluorescent labeling of nucleic acids (CyQuant dye; Molecular Probes, Carlsbad, Calif.) and with a microplate fluorescence reader (FLX800; Bio-Tek Instruments Inc., Winooski, Vt.) set to 480 nm excitation and 520 nm emission. […]"}, "[3]": {"test_system": "CD133dMSCs", "test": "Puromycin kill curve", "assay_type": "cell-based, human", "conditions": "after 3 days", "experimental": "Based on observations that CD133dMSCs increased their secretion of SDF-1 in culture following exposure to hypoxia and mRNA expression in vivo after injection into stroke penumbra, the role of SDF-1 in mediating the benefits of CD133dMSC CdM was explored using lentiviral shRNA knockdown of SDF-1 with puromycin-selectable vectors. In preliminary studies, kill curves were performed with transduced CD133dMSCs incubated in puromycin-containing culture medium to remove cells that were not transduced by lentivirus. […] Following lentiviral transduction of expanded CD133dMSCs from a single donor with a scrambled shRNA vector, 2 different shRNAs vectors against SDF-1, or a control selectable GFP vector, ELISAs and FACS assays were performed to characterize the cells."}}, "data": [{"compound": "COc1cccc(-c2cc(=O)c3ccccc3o2)c1N", "note": "[PD98059]", "values": [{"measurement": "effect on number/growth of CPCs in MSC conditioned media", "setting": "[1]", "value": "did not block"}]}, {"compound": "O=[N+]([O-])c1ccc2c(c1)S(=O)(=O)C=C2", "note": "[Stattic]", "values": [{"measurement": "effect on number/growth of CPCs in MSC conditioned media", "setting": "[1]", "value": "completely blocked"}, {"measurement": "effect on protective effects of conditioned media during hypoxia", "setting": "[2]", "value": "blocked the protective effects"}]}, {"compound": "COc1ccc(C[C@H](N)C(=O)N[C@H]2[C@@H](O)[C@H](n3cnc4c(N(C)C)ncnc43)O[C@@H]2CO)cc1", "note": "[puromycin]", "values": [{"measurement": "concentration sufficient to remove all untransduced CD133dMSCs", "setting": "[3]", "value": 2, "unit": "µg/mL"}]}, {"compound": "N#C/C(=C/c1ccc(O)c(O)c1)C(=O)NCc1ccccc1", "note": "[AG490]", "values": [{"measurement": "cell number ratio to control cell number", "setting": "[1]; 1 μM", "value": "96.3±0.9", "unit": "%"}, {"measurement": "cell number ratio to control cell number", "setting": "[1]; 5 μM", "value": "89.5±0.9", "unit": "%"}, {"measurement": "effect on CPC numbers in growth medium", "setting": "[1]; 10 μM, 48 hours", "value": "not AG490 significantly diminished"}, {"measurement": "effect on number of CPCs in conditioned media from fibroblasts", "setting": "[1]; 10 μM, 48 hours", "value": "inhibitory effect"}, {"measurement": "effect on number of CPCs in conditioned media from p75MSCs", "setting": "[1]; 10 μM, 48 hours", "value": "inhibitory effect"}, {"measurement": "effect on number of CPCs in serum-free medium", "setting": "[1]; 10 μM, 48 hours", "value": "significantly reduced"}, {"measurement": "cell number ratio to control cell number", "setting": "[1]; 10 μM", "value": "43.4±2.4", "unit": "%"}, {"measurement": "effect on protective effects of conditioned media during hypoxia", "setting": "[2]", "value": "inhibited the protective effects"}]}]}
